From PubChem BioAssay (NCI) come the findings set out here.

What all share (test): NCI tumour cell line growth inhibition, 48 h
The subject of test [1] is RXF 393 renal.
Test [2] concerns IGROV1 ovarian.
Test [3] relates to HT29 colon.
Test [4] has as its system SF-268 CNS.
Test [5] relates to HL-60(TB) leukemia.
Test [6] concerns M14 melanoma.
Test [7] has as its system SW-620 colon.
For test [8], the system named is UO-31 renal.
For test [9], the system named is OVCAR-4 ovarian.
The test system of test [10] is CAKI-1 renal.

Values joined by “and” are separate entries in the source; they are usually repeats but may differ in a detail not shown here. Equal values may be shown once.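 Step 1: Grow cells in 96-well plates. Step 2: Expose to compound for 48 hours at 5 concentrations. Step 3: Interpolate endpoints linearly; if unreached, use highest concentration. GI50 is the concentration that inhibits growth by half. TGI is the concentration that stops growth completely.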

In the case of `CCOC(=O)C1Oc2ccc([N+](=O)[O-])c3c2C1(O)CCC3` (centres undefined), the TGI in [1], in test [2], in test [3], in [4], in [5] and in test [6] was greater than 100 µM throughout. Moreover, the TGI in [7], in test [8] and in test [9] was greater than 100 µM throughout.

On to `Cc1ccc(-c2cc(-c3ccc(C)cc3)nc(NCCNc3ccnc4cc(Cl)ccc34)n2)cc1`, for which the GI50 in [2] is 1.52 µM; in test [3] it was 1.74 µM; in [4], 1.72 µM; in test [5], 2 µM; in [10] it was 1.43 µM; in test [6], 1.78 µM. Besides, the GI50 in test [7] was 1.71 µM; in test [8], 1.37 µM; in [9], 1.63 µM. Also, the TGI in test [2] is 3.16 µM; in test [3] it was 3.37 µM; in [4] it was 3.54 µM; in test [5] it was 4.15 µM; in test [10] it was 2.82 µM; in [6], 3.65 µM. Besides, the values for the TGI in test [7], in test [8] and in test [9] were 3.49 µM, 2.85 µM and 3.24 µM, respectively.

As to `N#CC(C(=O)CCC(=O)Nc1cccc(Cl)c1)c1ccccc1` (centres undefined), the TGI in [1], in test [2], in test [3], in test [4], in test [5] and in test [6] was greater than 100 µM each time. For the same compound, the TGI in [8] and in test [9] was greater than 100 µM in each case.

For `CSCC1CC(c2ccc(Cl)cc2)=NO1` (centres undefined), the TGI in test [2], in test [3], in [4], in test [5], in test [10] and in test [6] was greater than 100 µM throughout. Also, the TGI in [7], in [8] and in test [9] was greater than 100 µM in each case.

Regarding `C/C(=N\Nc1ccc2ccccc2n1)c1ccccn1`, the GI50 was 0.229 µM in test [1]; less than 0.0407 µM in [3]; 0.0489 µM in test [4]; 0.0504 µM in test [6]; less than 0.0395 µM in test [8]; less than 0.0204 µM in [9]. Moreover, the TGI in test [1] stood at 5.86 µM; in test [2] it was 0.979 µM; in [3], 3.09 µM; in test [4] it was 10.8 µM; in test [10] it was 0.59 µM; in test [6] it was 1.33 µM. Further, the TGI came to 5.67 µM in test [7], 0.676 µM in [8] and 33.5 µM in test [9].

Consider `CCN(C(=O)N1CCN(c2cc3c(cc2F)c(=O)c(C(=O)O)cn3C2CC2)CC1)c1nc(-c2ccc(C)cc2)cs1`, for which the GI50 in [1] was 0.38 µM; in test [2] it was 0.354 µM; in test [3], 0.332 µM; in test [4] it was 1.06 µM; in test [10], 1.4 µM; in test [6] it was 0.928 µM. Further, the GI50 in test [7] is 0.653 µM; in test [8] it was 0.322 µM. Moreover, the TGI in test [1] was 4.2 µM; in test [2], greater than 100 µM; in test [3], greater than 100 µM; in [4], greater than 100 µM; in test [10] it was greater than 100 µM; in test [6] it was greater than 100 µM. Further, the TGI in [7] and in test [8] was greater than 100 µM throughout.

Turning to `O=C(/C(=C/c1ccc([N+](=O)[O-])cc1)c1ccccc1)c1ccccc1`, the GI50 was 2.78 µM in test [1]; 3.25 µM in [2]; 3.33 µM in [3]; 3.55 µM in test [4]; 2.29 µM in test [5]; 3.08 µM in [6]. In addition, the GI50 in [9] is 3.57 µM. The TGI was 6.78 µM in [1]; greater than 100 µM in [2]; greater than 100 µM in test [3]; greater than 100 µM in [4]; 5.71 µM in test [5]; greater than 100 µM in test [6]. Moreover, the TGI in test [9] is greater than 100 µM.

Regarding `CS(=O)(=O)c1ccc(C(=O)Nc2ccc(Cl)c(-c3ccccn3)c2)c(Cl)c1`, the TGI in test [2] is greater than 100 µM; in [4] it was > 100 µM and 66.5 µM; in [6], > 100 µM and 11.1 µM; in [7], > 100 µM and 13.2 µM; in [8], > 42.6 µM and 27 µM; in test [9], greater than 100 µM. The GI50 is 12.1 µM and 3.66 µM in test [8]; 29.7 µM in test [9].

On to `CCN1CCC(CCOC)(CN2c3ccccc3Sc3ccc(Cl)cc32)C1` (centres undefined), for which the GI50 is 1.77 µM in [1]; 1.97 µM in test [2]; 2.73 µM in test [4]; 1.64 µM in test [10]; 1.92 µM in [6]; 1.7 µM in test [7]. The GI50 in test [8] is 1.66 µM; in test [9], 2.72 µM. The TGI came out at 4.03 µM in test [1]; 3.99 µM in test [2]; 8.67 µM in [4]; 3.11 µM in [10]; 3.62 µM in test [6]; 3.24 µM in [7]. Besides, the TGI in test [8] was 3.63 µM; in test [9] it was 8.66 µM.

On to `O=C1C(=O)N(c2ccc(Cl)c(Cl)c2)C(=O)C(=O)C1c1nc2ccccc2s1`, for which the TGI in test [1], in test [2], in [3], in [4], in [10] and in test [6] was greater than 100 µM throughout. Moreover, the TGI in test [7], in [8] and in test [9] was greater than 100 µM each time.

For `Cc1cc(N(CCC#N)CCC#N)ccc1/C=C/C(=O)Nc1cccc(Cl)c1`, the TGI in [2], in [3], in test [4], in test [5], in [10] and in [6] was greater than 100 µM in each case. For the same compound, the TGI in test [7], in test [8] and in test [9] was greater than 100 µM throughout.

For `C=C1COC(/C=C(\C)CC/C=C(\C)CCl)C1` (centres undefined), the TGI in test [1], in test [2], in test [3], in [4], in test [5] and in [6] was greater than 100 µM each time. In addition, the TGI in test [7], in test [8] and in test [9] was greater than 100 µM each time.

As for `c1ccc2c(c1)c(NCCCCN1CCCCC1)cc1c3ccccc3c(NCCCCN3CCCCC3)cc21`, the GI50 is 15.7 µM in test [1]; 36.9 µM in test [2]; 14.1 µM in test [4]; 19.7 µM in test [5]; 21 µM in test [10]; 10.6 µM in [7]. The GI50 in test [8] is 28.7 µM. Moreover, the TGI in test [1] was 38.2 µM; in test [2], greater than 100 µM; in test [4] it was 32.1 µM; in test [5], greater than 100 µM; in test [10], 46.1 µM; in test [7], greater than 100 µM. This compound returned a TGI in test [8] greater than 100 µM.

With `C=CCc1cc(OC)c2c(c1)C(O)CC(c1ccccc1)O2` (centres undefined), the TGI in test [2], in [3], in test [4], in test [5], in [10] and in test [6] was greater than 100 µM in each case. The TGI in test [7], in [8] and in test [9] was greater than 100 µM in each case.

For the compound `COc1ccc(N=c2ssc3c(=S)ssc23)cc1`, the TGI in test [1] is 38.7 µM; in test [2] it was 26.3 µM; in test [4], greater than 100 µM; in test [5] it was 28.2 µM; in test [10], greater than 100 µM; in test [6], 48.6 µM. For the same compound, the results for the TGI in test [7] and in test [9] were 35.8 µM and greater than 100 µM, respectively.

As for `COC(=O)C(Cc1ccccc1)NC(=O)NC(=O)NC(=O)CI` (centres undefined), the GI50 in [1] is 7.75 µM; in test [2] it was 3.05 µM; in test [3] it was 14.2 µM; in test [4], 14.1 µM; in [10], 2 µM; in test [6], 2.51 µM. The GI50 in [7] is 5.95 µM; in [8] it was 1.83 µM; in [9] it was 4.41 µM. Besides, the TGI in [1] is 20.2 µM; in [2], 10.1 µM; in test [3], 49.9 µM; in [4] it was 30.4 µM; in test [10] it was 4.08 µM; in [6] it was 7.45 µM. Besides, the TGI in test [7] is 21.7 µM; in [8], 3.44 µM; in test [9], 24.4 µM.

In the case of `COc1ccc(OC)c(NC(=O)CCC/C(CC(=O)c2ccc(O)c(OC)c2)=N\NC(=O)C[N+](C)(C)C)c1`, the TGI in test [2], in test [3], in test [4], in test [5], in test [10] and in test [6] was greater than 100 µM each time. For the same compound, the TGI in test [7], in test [8] and in test [9] was greater than 100 µM throughout.

Regarding `COc1cc2c(cc1OC(=O)CC(C)O)C1C(OC2=O)C(OC(C)=O)C=C2CCN(C)[C@H]21` (some centres undefined), the TGI is 70.4 µM in [2]; greater than 100 µM in test [3]; greater than 100 µM in [4]; greater than 100 µM in [10]; greater than 100 µM in test [6]; greater than 100 µM in [7]. For the same compound, the TGI in test [8] and in test [9] was greater than 100 µM each time.

On to `CCOC(=O)c1oc2ccc(OC)c3c2c1CCC3`, for which the TGI in test [1], in test [2], in test [4], in test [5], in [6] and in [7] was greater than 100 µM throughout. Further, the TGI in test [8] and in test [9] was greater than 100 µM in each case.

As to `COc1ccc(C2CC(c3cc(OC)c(OC)c(OC)c3)=NN2C(C)=O)cc1OCC(=O)Nc1nc2ccc(C(F)(F)F)cc2s1` (centres undefined), the GI50 in test [1] is 2.09 µM; in [2], 5.3 µM; in test [4] it was 3.84 µM; in [6], 6.44 µM; in test [7], greater than 100 µM; in test [9] it was 2.9 µM. Further, the TGI in test [1] was 5.32 µM; in test [2] it was greater than 100 µM; in [4], 29.5 µM; in test [6], greater than 100 µM; in test [7], greater than 100 µM; in test [9], greater than 100 µM.

As for `N#Cc1c(N/N=C/c2c(Cl)cccc2Cl)nc(N)nc1N1CCOCC1`, the GI50 was 16.6 µM in test [1]; 3.95 µM in test [2]; 19.4 µM in [3]; 16.5 µM in [4]; 12.1 µM in test [10]; 6.79 µM in test [6]. Also, the GI50 in test [7] was 6.11 µM; in test [8], 14.5 µM; in [9], greater than 100 µM. For the same compound, the TGI in test [1] was 94.2 µM; in test [2], 34.6 µM; in test [3] it was greater than 100 µM; in [4], greater than 100 µM; in test [10], greater than 100 µM; in [6], 38.7 µM. The TGI in [7] was greater than 100 µM; in test [8], 86.4 µM; in [9] it was greater than 100 µM.

In the case of `CC(=O)OC1CCn2nnc(CO[Si](C)(C)C(C)(C)C)c21` (centres undefined), the TGI in test [1], in [2], in test [3], in [10], in test [6] and in test [7] was greater than 100 µM in each case. In addition, the TGI in [8] and in test [9] was greater than 100 µM in each case.

With `Nn1c(-c2ccccc2Cl)nc2ccccc2c1=O`, the TGI in [2], in test [3], in [4], in test [5], in test [10] and in [6] was greater than 100 µM in each case. The TGI in test [7], in [8] and in test [9] was greater than 100 µM in each case.

Consider `CCCCNCC(=O)O[C@]1(CC)C(=O)OCc2c1cc1n(c2=O)Cc2cc3ccccc3nc2-1`, for which the TGI was 2.15 µM in test [1]; greater than 39.3 µM in test [2]; greater than 100 µM in [3]; greater than 95.6 µM in test [4]; 0.314 µM in test [5]; 7.23 µM in test [6]. Further, the TGI in test [8] was determined as 1.71 µM; in test [9] it was 20.4 µM.
